Reference: US20110274763A1, “Slow releasing microcapsules and microspheres containing an active substance” (priority 2009, published 2011)
Read-outs that look alike come from different tables or passages of the source.

How the values were obtained:
[1] = IPBC release from painted surfaces immersed in water (14C, liquid scintillation); type: physicochemical; details: water-based paint; 0.1% IPBC in wet paint; microspheres with 10% and 25% loading; plates in 250 ml water
Procedure: Three different 10 g paint samples were prepared. […] A specific fraction of the IPBC was ^14C-labelled material. Wet paint contained in total 0.1% IPBC. Stirring the paint assured homogeneous dispersion of the added substance. […] The containers were placed on a mechanical shaker. […] The release of free IPBC is about three times faster than that from microspheres.

[2] = plates in 2000 ml water, 0.4% medetomidine in wet paint
Procedure: Four different 30 g paint samples were prepared. Two of the samples were based on biocide-free and water-based standard white exterior wall paint, while the two other samples were based on biocide-free and organic solvent-based standard white exterior wall paint. Medetomidine was added to each sample, either in free form or the form of microspheres. ^14C-labelled material was 2.3% of all medetomidine. Wet paint contained in total 0.4% medetomidine. Stirring the paint with an electrical mixer assured homogeneous dispersion of the added substance. For the release studies, approximately 1 g (dry state) of the paint systems was applied on poly(propylene) plates using a paint applicator. After drying and weighing, each plate was vertically positioned in a closed container containing 2000 ml water that covered the plate. The containers were placed on a mechanical shaker. At various times 1000 μl water was pipetted out from each system and transferred to 20 ml tubes.

[3] = test system: barnacles and other fouling organisms; details: 0.1% by weight medetomidine or equivalent in marine paint; six and ten months of submersion in the sea, Swedish west coast
Procedure: PMMA test panels 1 dm^2 was painted by brush with three different biocide free commercially available marine paints. 3 ml of paint were used for each layer and there were two layers applied on each panel. These panels were used as references. To the same paints in different cans were added 0.1% by weight of medetomidine or an equivalent amount of medetomidine encapsulated in microspheres. The paint mixtures were applied to the same kind of test panels as the reference paints. All panels were made in triplicates and mounted randomly on a frame for submersion into the sea on the Swedish west coast (Tjärnö Marine Biological Laboratory). After six months and ten months (June 2009 to December 2009 and in April 2010) of submersion they were inspected.

SMILES: CCCCNC(=O)OCC#CI [free IPBC, 3-iodo-2-propynyl butylcarbamate]
- release of free IPBC compared with that from microspheres [1]: about three

SMILES: Cc1cccc(C(C)c2cnc[nH]2)c1C (stereo not shown) [medetomidine, 4-[1-(2,3-dimethylphenyl)ethyl]-3H-imidazole]
- release of free medetomidine compared with that from microspheres ([2]; solvent-based paint): ten
- release of free medetomidine compared with that from microspheres ([2]; water-based paint): about two
- barnacle / tubeworm attachment on painted panels [3]: no barnacles or tubeworms attached
